What all share (type): functional
The species entered for test [1] is Rattus norvegicus. Briefly: In vitro inhibitory effect on D-Galactosamine induced cytotoxicity in primary cultured rat hepatocytes at 3 ug/mL. The settings on record: Hepatocyte.
Test [2] is filed under the species Rattus norvegicus. Briefly: In vitro inhibitory effect on D-Galactosamine induced cytotoxicity in primary cultured rat hepatocytes at 10 ug/mL. The settings on record: Hepatocyte.
The species entered for test [3] is Rattus norvegicus. Briefly: In vitro inhibitory effect on D-Galactosamine induced cytotoxicity in primary cultured rat hepatocytes at 1 ug/mL. Conditions: Hepatocyte.
Test [4] relates to Mus musculus. Briefly: Inhibitory effect on D-GalN/LPS (injected i.p. dose of 350 mg/kg and 10 ug/kg) induced hepatic injury in mice at 10 mg/kg, ip.
The species entered for test [5] is Rattus norvegicus. The test can be described thus: In vitro inhibitory effect on D-Galactosamine induced cytotoxicity in primary cultured rat hepatocytes at 0.3 ug/mL. The settings on record: Hepatocyte.
Test [6] is filed under the species Rattus norvegicus. The test can be described thus: In vitro inhibitory effect on D-Galactosamine induced cytotoxicity in primary cultured rat hepatocytes at 30 ug/mL. The settings on record: Hepatocyte.
The subject of test [7] is Mus musculus. Briefly: Inhibitory effect on D-GalN/LPS (injected i.p. dose of 350 mg/kg and 10 ug/kg) induced hepatic injury in mice at 20 mg/kg, ip.

SMILES strings stand for the structures.

The term inhibition denotes the relative decrease from the control value, in per cent. With `C[C@H]1O[C@@H](O[C@H]2CC[C@@]3(C)C(CC[C@]4(C)C3[C@H](O)CC3C5=CC(C)(C)CC[C@]5(CO)[C@@H](O)C[C@]34C)[C@]2(C)CO)[C@H](O)[C@@H](O[C@@H]2O[C@H](CO)[C@@H](O)[C@H](O)[C@H]2O)[C@H]1O` (stereo not given in full), in the test filed under Rattus norvegicus [1], the inhibition at 3 µg/mL was found to be 59.4%. For the same compound, the inhibition at 10 µg/mL in the test listed under Rattus norvegicus [2] came out at 69.5%. Also, in the test listed under Rattus norvegicus [3], the inhibition at 1 µg/mL is 39.7%. In the test on Mus musculus [4], this compound came in with a s-GOT level of 1209 Karmen units and a s-GPT level of 1265 Karmen units. In addition, the inhibition at 0.3 µg/mL in the test filed under Rattus norvegicus [5] came out at 15.8%. For the same compound, the inhibition at 30 µg/mL in the test filed under Rattus norvegicus [6] was determined as 64.7%.
As for `C[C@H]1O[C@@H](O[C@H]2CC[C@@]3(C)C(CC[C@]4(C)C3[C@H](O)C=C3C5CC(C)(C)CC[C@]5(CO)[C@@H](O)C[C@]34C)[C@]2(C)CO)[C@H](O)[C@@H](O[C@@H]2O[C@H](CO)[C@@H](O)[C@H](O)[C@H]2O)[C@H]1O` (stereo not given in full), the inhibition at 3 µg/mL in the test listed under Rattus norvegicus [1] is 35.6%. Moreover, the inhibition at 10 µg/mL in the test listed under Rattus norvegicus [2] turned out to be 43.1%. Moreover, in the test listed under Rattus norvegicus [3], the inhibition at 1 µg/mL worked out at 16.7%. In the test with Mus musculus [4], the s-GOT level stood at 1261 Karmen units and the s-GPT level is on record as 1483 Karmen units. Also, in the test listed under Rattus norvegicus [5], the inhibition at 0.3 µg/mL worked out at 6.8%. The inhibition at 30 µg/mL in the test filed under Rattus norvegicus [6] turned out to be 46.5%.
For `C[C@H]1O[C@@H](O[C@H]2CC[C@@]3(C)C(CC[C@]4(C)C3C(=O)C=C3C5CC(C)(C)CC[C@]5(CO)[C@@H](O)C[C@]34C)[C@]2(C)CO)[C@H](O)[C@@H](O[C@@H]2O[C@H](CO)[C@@H](O)[C@H](O)[C@H]2O)[C@H]1O` (stereo not given in full), the inhibition at 3 µg/mL in the test filed under Rattus norvegicus [1] came to 44.5%. For the same compound, the inhibition at 10 µg/mL in the test listed under Rattus norvegicus [2] amounted to 72.8%. The inhibition at 1 µg/mL in the test filed under Rattus norvegicus [3] stood at 16.9%. Besides, the s-GOT level in the test with Mus musculus [7] was found to be 1404 Karmen units; with Mus musculus [4] it was 7211 Karmen units. Moreover, the s-GPT level is on record as 1530 Karmen units in the test on Mus musculus [7] and 7887 Karmen units in the test on Mus musculus [4]. Also, in the test listed under Rattus norvegicus [5], the inhibition at 0.3 µg/mL came to 5.5%. In addition, in the test listed under Rattus norvegicus [6], the inhibition at 30 µg/mL was determined as 90.9%.
In the test on Mus musculus [7], `C[C@]12CCC(=O)C=C1CCC1[C@@H]2[C@@H](O)C[C@@]2(C)[C@H]1CC[C@]2(O)C(=O)CO` (single isomer, unassigned) [HYDROCORTISONE] showed a s-GOT level of 331 Karmen units and a s-GPT level of 202 Karmen units.
Regarding `C[C@@H]1O[C@@H](O[C@@H]2[C@H](O)[C@@H](O)[C@H](O[C@H]3CC[C@@]4(C)C(CC[C@]5(C)C4CC=C4C6CC(C)(C)CC[C@]6(CO)CC[C@]45C)C3(C)C)O[C@@H]2CO[C@@H]2O[C@H](CO)[C@@H](O)[C@H](O)[C@H]2O)[C@H](O)[C@H](O)[C@H]1O` (stereo not given in full) [BUPLEUROSIDE XI], the inhibition at 3 µg/mL in the test filed under Rattus norvegicus [1] is -1%. In the test filed under Rattus norvegicus [2], the inhibition at 10 µg/mL came to 0.3%. Besides, the inhibition at 1 µg/mL in the test filed under Rattus norvegicus [3] is 1.6%. The inhibition at 0.3 µg/mL in the test listed under Rattus norvegicus [5] was -0.4%. Moreover, the inhibition at 30 µg/mL in the test filed under Rattus norvegicus [6] was -0.3%.
The matching figures for `C[C@@H]1O[C@@H](O[C@H]2[C@@H](O)[C@@H](CO[C@@H]3O[C@H](CO)[C@@H](O)[C@H](O)[C@H]3O)O[C@@H](OC3CC[C@@]4(C)C(CC[C@]5(C)C4C=CC4=C6CC(C)(C)CC[C@]6(CO)[C@H](O)C[C@]45C)[C@]3(C)CO)[C@@H]2O)[C@H](O)[C@H](O)[C@H]1O` (stereo not given in full) [BUPLEUROSIDE X]: 4.6%, 3.4%, 3.9%, 2.9% and 2.7%.
The matching figures for `C[C@@H]1O[C@@H](O[C@@H]2[C@H](O)[C@@H](O)[C@H](O[C@H]3CC[C@@]4(C)C(CC[C@]5(C)C4C=C[C@]46OC[C@@]7(CCC(C)(C)CC74)[C@@H](O)C[C@]65C)C3(C)C)O[C@@H]2CO[C@@H]2O[C@H](CO)[C@@H](O)[C@H](O)[C@H]2O)[C@H](O)[C@H](O)[C@H]1O` (stereo not given in full) [SAIKOSAPONIN C]: -1.9%, -1%, -0.7%, -1.5% and -1%.
